Three substances from PMC4063695, “Design of Embedded-Hybrid Antimicrobial Peptides with Enhanced Cell Selectivity and Anti-Biofilm Activity” (PLoS ONE, 2014) can be followed below.

One data set has as its system S. typhimurium ATCC14028. From the text:
(§1) E. coli ATCC25922, P. aeruginosa ATCC27853, S. aureus ATCC29213, S. epidermidis ATCC12228, S. faecalis ATCC29212 and B. subtilis CMCC63501 were obtained from the College of Veterinary Medicine, Northeast Agricultural University (Harbin, China), E. coli K88, E. coli CVCC1515 and P. aeruginosa ATCC15442 were bestowed by Prof. J.H. Wang (Gene Engineering Laboratory, Feed Research Institute, Chinese Academy of Agricultural Sciences Beijing, China) and E. coli UB1005 was kindly provided by Prof. Q.S. Qi (State Key Laboratory of Microbial Technology, Shandong University, China). […] Briefly, 50 µl of approximate 0.5–1 × 10^6 colony forming units (CFU)/ml of cells were diluted in Mueller-Hinton broth and distributed to 96-well plate, 50 µl of twofold peptides were added and the plates was incubated at 37°C for 18–24 h. The MIC values were calculated as the lowest peptide concentration that prevented visible turbidity and negative control of the pure broth without microbes. The tests were performed at least three times in duplicate.

For a further data set, the system named is B. subtilis CMCC63501.
From the text: as §1

The next data set has as its system S.aureus ATCC29213.
From the text: as §1

The next data set deals with P. aeruginosa ATCC27853.
From the text: as §1

In the next data set the test system is P. aeruginosa variant 2. To be noted: P. aeruginosa variant 2, obtained by step-wise culture with gentamicin; MHB, 37°C, 18-24 h.
From the text: as §1

For a further data set, the system named is P. aeruginosa ATCC15442.
From the text: as §1

In another data set the test system is E. coli CVCC1515.
From the text: as §1

The test system of the next data set is S. pullorum C79-13.
From the text: as §1

A further data set relates to E. coli K88. To be noted: MHB, 37°C, 18-24 h, at least three times in duplicate.
From the text: as §1

The next data set has as its system E. coli ATCC25922.
From the text: as §1

The next data set relates to S.faecalis ATCC29212.
From the text: as §1

The subject of the next data set is E. coli UB1005.
From the text: as §1

In a further data set the test system is P. aeruginosa variant 1. The conditions noted are these: P. aeruginosa variant 1, obtained by step-wise culture with ciprofloxacin hydrochloride; MHB, 37°C, 18-24 h.
From the text: as §1

Another data set relates to S.epidermidis ATCC12228.
From the text: as §1

Data set [1] deals with human red blood cells (hRBC). The experiment in a line: Hemolytic activity. It counts as cell-based. The procedure: The amount of released hemoglobin by the lysis of erythrocytes was measured for hemolytic activity of peptides. Human erythrocytes were obtained from a healthy donor with written informed consent. The experimental protocol was reviewed and approved by the ethics committee of the Northeast Agricultural University Hospital. The measurement was based on a previously described method. The fresh hRBCs were washed three times by centrifugation (1000 g, 5 min, 4°C) in PBS (pH 7.4), and then resuspended in PBS to obtain the erythrocyte with a dilution of approximately 1% (v/v). Then, 50 µL of hRBCs solution was incubated with 50 µL of different concentrations of the peptides dissolved in PBS for 1 h at 37°C, before centrifugation (1000 g, 5 min, 4°C) again. The absorbance of the supernatants was measured at optical density (OD) 492 nm. […] The control samples for 0% and 100% hemolysis consisted of hRBCs in PBS (Ablank) only and in 0.1% Triton X-100 (Atriton), respectively. The percentage of hemolysis was calculated according to the following equation: [drawing 3]

A short description of data set [2]: Circular dichroism, secondary structure. It counts as physicochemical. The conditions noted are these: 30 mM SDS micelles; 150 µM peptide. How it is done:
The CD spectra were measured with a CD spectropolarimeter (Jasco, J-820, Tokyo, Japan) at 25°C, using a 0.1 cm path length rectangular quartz cell. The spectra were recorded at between 190 and 250 nm at 10 nm/min scanning speed. At least three scans were conducted for each peptide sample.
The acquired CD spectra were converted to the mean residue ellipticity through the following equation: [drawing 1]
where θM is the mean residue ellipticity [deg.cm2.dmol-1], θobs is the observed ellipticity corrected for the buffer at a given wavelength [mdeg], c is the peptide concentration [mM], l is the path length [mm], and n is the number of amino acids.
The percentage of α-helical structure was calculated as followings: [drawing 2]
where [θ]222 is the experimentally observed mean residue ellipticity at 222 nm, and values for [θ]^0 and [θ]^100 which correspond to 0 and 100% a-helix content at 222 nm, are estimated to be −2000 and −32000, respectively, [29].

The test system of data set [3] is Gram-negative and Gram-positive strains. The experiment in a line: MIC over all tested strains (range, geometric mean). In kind it is cell-based. Details: GM (geometric mean of MIC values from all microbial strains): unit not given here. The conditions noted are these: for GM (geometric mean of MIC values from all microbial strains): all strains of Table 2.
From the text: as §1

Setting [4] is: S. typhimurium ATCC14028, MHB, 37°C, 18-24 h, at least three times in duplicate.
Where [5] appears, read: B. subtilis CMCC63501, MHB, 37°C, 18-24 h, at least three times in duplicate.
The mark [6] stands for this setting: S.aureus ATCC29213, MHB, 37°C, 18-24 h, at least three times in duplicate.
The mark [7] stands for this setting: P. aeruginosa ATCC27853, MHB, 37°C, 18-24 h, at least three times in duplicate.
Where [8] appears, read: P. aeruginosa ATCC15442, MHB, 37°C, 18-24 h, at least three times in duplicate.
Where [9] appears, read: E. coli CVCC1515, MHB, 37°C, 18-24 h, at least three times in duplicate.
The mark [10] stands for this setting: S. pullorum C79-13, MHB, 37°C, 18-24 h, at least three times in duplicate.
Where [11] appears, read: E. coli ATCC25922, MHB, 37°C, 18-24 h, at least three times in duplicate.
[12] abbreviates: S.faecalis ATCC29212, MHB, 37°C, 18-24 h, at least three times in duplicate.
Where [13] appears, read: E. coli UB1005, MHB, 37°C, 18-24 h, at least three times in duplicate.
Where [14] appears, read: S.epidermidis ATCC12228, MHB, 37°C, 18-24 h, at least three times in duplicate.
Where [15] appears, read: minimum concentration that caused 5% hemolysis of hRBC (footnote), 1% hRBC in PBS pH 7.4, 1 h, 37°C, OD 492 nm.

Read-outs that look alike come from different tables or passages of the source. No end group written: not given here.

The term MIC denotes the lowest concentration found to suppress growth. Turning to RFRRLRKKTRKRLKKI-NH2 [RI16], the MIC is reported as 64 µM against S. typhimurium ATCC14028 (setting [4]); 64 µM in the data set with B. subtilis CMCC63501 (setting [5]); 128 µM against S.aureus ATCC29213 (setting [6]); 128 µM in the data set on P. aeruginosa ATCC27853 (setting [7]); more than 256 µM in the data set on P. aeruginosa variant 2; more than 256 µM against P. aeruginosa ATCC15442 (setting [8]). Moreover, the MIC against E. coli CVCC1515 (setting [9]) is 128 µM; in the data set with S. pullorum C79-13 (setting [10]), 64 µM; in the data set on E. coli K88 it was more than 256 µM; in the data set with E. coli ATCC25922 (setting [11]), 128 µM; against S.faecalis ATCC29212 (setting [12]) it was 128 µM; with E. coli UB1005 (setting [13]), 128 µM. Moreover, the minimum inhibitory concentration (MIC) against P. aeruginosa variant 1 is reported as more than 256 µM; with S.epidermidis ATCC12228 (setting [14]), 32 µM. The MHC in data set [1] (setting [15]) is on record as more than 256 µM.
Regarding FRIRVRV-NH2 [FV7, reference compound], the MIC against S. typhimurium ATCC14028 (ATCC14028) was 16 µM; in the data set with B. subtilis CMCC63501 (CMCC63501) it was 16 µM; with S.aureus ATCC29213 (ATCC29213), 64 µM; against P. aeruginosa ATCC27853 (ATCC27853), 16 µM; with P. aeruginosa variant 2, 16 µM; against P. aeruginosa ATCC15442 (ATCC15442), 16 µM. Also, the MIC against E. coli CVCC1515 (CVCC1515) was 32 µM; against S. pullorum C79-13 (C79-13) it was 128 µM; against E. coli K88 it was 16 µM; with E. coli ATCC25922 (ATCC25922), 16 µM; against S.faecalis ATCC29212 (ATCC29212), 32 µM; with E. coli UB1005 (UB1005) it was 32 µM. The MIC with P. aeruginosa variant 1 was 8 µM; against S.epidermidis ATCC12228 (ATCC12228) it was 32 µM. Besides, the “secondary structure (in words)” value in data set [2] is listed as “β-sheet”. The “GM (geometric mean of MIC values from all microbial strains)” value in data set [3] is 29. Further, the MHC in [1] (pH 7.4) is listed as more than 256 µM.
In the case of RKKTRKR-NH2 [RR7], the MIC against S. typhimurium ATCC14028 (setting [4]), in the data set with B. subtilis CMCC63501 (setting [5]), with S.aureus ATCC29213 (setting [6]), in the data set with P. aeruginosa ATCC27853 (setting [7]), with P. aeruginosa variant 2 and in the data set on P. aeruginosa ATCC15442 (setting [8]) was more than 256 µM throughout. In addition, the MIC against E. coli CVCC1515 (setting [9]), against S. pullorum C79-13 (setting [10]), against E. coli K88, with E. coli ATCC25922 (setting [11]), against S.faecalis ATCC29212 (setting [12]) and against E. coli UB1005 (setting [13]) was more than 256 µM each time. Besides, the MIC in the data set on P. aeruginosa variant 1 and in the data set with S.epidermidis ATCC12228 (setting [14]) was more than 256 µM throughout. The “antimicrobial activity (in words)” value in [3] (Gram-negative and Gram-positive strains) is on record as “poor antimicrobial activity”. In data set [3], the “GM (geometric mean of MIC values from all microbial strains)” value amounted to 256. This substance also displayed an MHC in [1] (setting [15]) of more than 256 µM.
